# Data from PubChem BioAssay (NCI).
#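 Assay format: 96-well plates, 48-hour exposure. GI50 marks 50% less growth. TGI: concentration producing complete growth inhibition.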
# Legend:
# Experiment in all cases: NCI tumour cell line growth inhibition, 48 h
# UACC-257 melanoma = tested on: UACC-257 melanoma
# DU-145 prostate = tested on: DU-145 prostate
# HT29 colon = tested on: HT29 colon
# OVCAR-4 ovarian = tested on: OVCAR-4 ovarian
# CCRF-CEM leukemia = tested on: CCRF-CEM leukemia
# NCI-H23 lung = tested on: NCI-H23 lung
# RPMI-8226 leukemia = tested on: RPMI-8226 leukemia
# SNB-75 CNS = tested on: SNB-75 CNS
# HOP-92 NSCLC = tested on: HOP-92 NSCLC
# HCT-116 colon = tested on: HCT-116 colon
# TK-10 renal = tested on: TK-10 renal
# HL-60(TB) leukemia = tested on: HL-60(TB) leukemia
# SK-MEL-28 melanoma = tested on: SK-MEL-28 melanoma
# SF-539 CNS = tested on: SF-539 CNS
# HOP-62 NSCLC = tested on: HOP-62 NSCLC
# EKVX NSCLC = tested on: EKVX NSCLC
# NCI-H522 lung = tested on: NCI-H522 lung
# OVCAR-3 ovarian = tested on: OVCAR-3 ovarian
# KM12 colon = tested on: KM12 colon
# SK-MEL-5 melanoma = tested on: SK-MEL-5 melanoma
# SF-295 CNS = tested on: SF-295 CNS
# HCC-2998 colon = tested on: HCC-2998 colon
# MDA-MB-231 breast = tested on: MDA-MB-231 breast
# SN12C renal = tested on: SN12C renal
# SK-OV-3 ovarian = tested on: SK-OV-3 ovarian
# RXF 393 renal = tested on: RXF 393 renal
# T-47D breast = tested on: T-47D breast
# MDA-MB-435 = tested on: MDA-MB-435
# MDA-MB-468 breast = tested on: MDA-MB-468 breast
# U251 CNS = tested on: U251 CNS
# MOLT-4 leukemia = tested on: MOLT-4 leukemia
# SW-620 colon = tested on: SW-620 colon
# PC-3 prostate = tested on: PC-3 prostate
# SF-268 CNS = tested on: SF-268 CNS
# A549 NSCLC = tested on: A549 NSCLC
# K-562 leukemia = tested on: K-562 leukemia
# UACC-62 melanoma = tested on: UACC-62 melanoma
# NCI/ADR-RES ovarian = tested on: NCI/ADR-RES ovarian
# MALME-3M melanoma = tested on: MALME-3M melanoma
# OVCAR-5 ovarian = tested on: OVCAR-5 ovarian
# BT-549 breast = tested on: BT-549 breast
# LOX IMVI melanoma = tested on: LOX IMVI melanoma
# OVCAR-8 ovarian = tested on: OVCAR-8 ovarian
# SR leukemia = tested on: SR leukemia
# ACHN renal = tested on: ACHN renal
# 786-0 renal = tested on: 786-0 renal
# A498 renal = tested on: A498 renal
# MCF7 breast = tested on: MCF7 breast
# NCI-H460 lung = tested on: NCI-H460 lung
# HS 578T breast = tested on: HS 578T breast
# SNB-19 CNS = tested on: SNB-19 CNS
# CAKI-1 renal = tested on: CAKI-1 renal
# SK-MEL-2 melanoma = tested on: SK-MEL-2 melanoma
# COLO 205 colon = tested on: COLO 205 colon
# HCT-15 colon = tested on: HCT-15 colon
# UO-31 renal = tested on: UO-31 renal
# M14 melanoma = tested on: M14 melanoma
smiles,measurement,setting,value
Cc1nc(Nc2ncc(C(=O)Nc3c(C)cccc3Cl)s2)cc(N2CCN(CCCNC(=O)COc3ccc(C4CCC(=O)NC4=O)cc3)CC2)n1 (stereo not drawn),GI50,UACC-257 melanoma,> 100 µM
same,TGI,UACC-257 melanoma,> 100 µM
same,GI50,DU-145 prostate,2.3 µM
same,TGI,DU-145 prostate,> 100 µM
same,GI50,HT29 colon,0.181 µM
same,TGI,HT29 colon,2.54 µM
same,GI50,OVCAR-4 ovarian,> 100 µM
same,TGI,OVCAR-4 ovarian,> 100 µM
same,GI50,CCRF-CEM leukemia,34 µM
same,TGI,CCRF-CEM leukemia,> 100 µM
same,GI50,NCI-H23 lung,16.9 µM
same,TGI,NCI-H23 lung,> 100 µM
same,GI50,RPMI-8226 leukemia,> 100 µM
same,TGI,RPMI-8226 leukemia,> 100 µM
same,GI50,SNB-75 CNS,< 0.01 µM
same,GI50,HOP-92 NSCLC,< 0.01 µM
same,TGI,HOP-92 NSCLC,0.0498 µM
same,GI50,HCT-116 colon,2.5 µM
same,TGI,HCT-116 colon,> 92.5 µM
same,GI50,TK-10 renal,0.517 µM
same,TGI,TK-10 renal,4.12 µM
same,GI50,HL-60(TB) leukemia,> 79.5 µM
same,TGI,HL-60(TB) leukemia,> 100 µM
same,GI50,SK-MEL-28 melanoma,> 100 µM
same,TGI,SK-MEL-28 melanoma,> 100 µM
same,GI50,SF-539 CNS,0.0507 µM
same,TGI,SF-539 CNS,4.7 µM
same,GI50,HOP-62 NSCLC,0.336 µM
same,TGI,HOP-62 NSCLC,> 100 µM
same,GI50,EKVX NSCLC,1.85 µM
same,TGI,EKVX NSCLC,> 100 µM
same,GI50,NCI-H522 lung,1.3 µM
same,TGI,NCI-H522 lung,> 100 µM
same,GI50,OVCAR-3 ovarian,0.275 µM
same,TGI,OVCAR-3 ovarian,> 100 µM
same,GI50,KM12 colon,> 91.9 µM
same,TGI,KM12 colon,> 100 µM
same,GI50,SK-MEL-5 melanoma,66.7 µM
same,TGI,SK-MEL-5 melanoma,> 100 µM
same,GI50,SF-295 CNS,6.78 µM
same,TGI,SF-295 CNS,> 100 µM
same,GI50,HCC-2998 colon,> 100 µM
same,TGI,HCC-2998 colon,> 100 µM
same,GI50,MDA-MB-231 breast,0.0256 µM
same,TGI,MDA-MB-231 breast,10.6 µM
same,GI50,SN12C renal,0.0309 µM
same,TGI,SN12C renal,> 100 µM
same,GI50,SK-OV-3 ovarian,0.505 µM
same,TGI,SK-OV-3 ovarian,6.95 µM
same,GI50,RXF 393 renal,0.0147 µM
same,TGI,RXF 393 renal,0.081 µM
same,GI50,T-47D breast,0.454 µM
same,TGI,T-47D breast,> 100 µM
same,GI50,MDA-MB-435,> 100 µM
same,TGI,MDA-MB-435,> 100 µM
same,GI50,MDA-MB-468 breast,0.172 µM
same,TGI,MDA-MB-468 breast,5.16 µM
same,GI50,U251 CNS,> 100 µM
same,TGI,U251 CNS,> 100 µM
same,GI50,MOLT-4 leukemia,7.64 µM
same,TGI,MOLT-4 leukemia,> 100 µM
same,GI50,SW-620 colon,> 100 µM
same,TGI,SW-620 colon,> 100 µM
same,GI50,PC-3 prostate,2.43 µM
same,TGI,PC-3 prostate,> 100 µM
same,GI50,SF-268 CNS,0.11 µM
same,TGI,SF-268 CNS,> 100 µM
same,GI50,A549 NSCLC,2.23 µM
same,TGI,A549 NSCLC,> 48.1 µM
same,GI50,K-562 leukemia,< 0.01 µM
same,TGI,K-562 leukemia,> 100 µM
same,GI50,UACC-62 melanoma,> 100 µM
same,TGI,UACC-62 melanoma,> 100 µM
same,GI50,NCI/ADR-RES ovarian,> 100 µM
same,TGI,NCI/ADR-RES ovarian,> 100 µM
same,GI50,MALME-3M melanoma,> 100 µM
same,TGI,MALME-3M melanoma,> 100 µM
same,GI50,OVCAR-5 ovarian,0.191 µM
same,TGI,OVCAR-5 ovarian,> 100 µM
same,GI50,BT-549 breast,> 100 µM
same,TGI,BT-549 breast,> 100 µM
same,GI50,LOX IMVI melanoma,0.0182 µM
same,TGI,LOX IMVI melanoma,0.218 µM
same,GI50,OVCAR-8 ovarian,0.934 µM
same,TGI,OVCAR-8 ovarian,> 52.2 µM
same,GI50,SR leukemia,2.8 µM
same,TGI,SR leukemia,> 100 µM
same,GI50,ACHN renal,0.757 µM
same,TGI,ACHN renal,> 100 µM
same,GI50,786-0 renal,0.445 µM
same,TGI,786-0 renal,> 100 µM
same,GI50,A498 renal,2.93 µM
same,TGI,A498 renal,> 100 µM
same,GI50,MCF7 breast,> 100 µM
same,TGI,MCF7 breast,> 100 µM
same,GI50,NCI-H460 lung,> 100 µM
same,TGI,NCI-H460 lung,> 100 µM
same,GI50,HS 578T breast,0.0167 µM
same,TGI,HS 578T breast,0.13 µM
same,GI50,SNB-19 CNS,> 100 µM
same,TGI,SNB-19 CNS,> 100 µM
same,GI50,CAKI-1 renal,0.206 µM
same,TGI,CAKI-1 renal,1.83 µM
same,GI50,SK-MEL-2 melanoma,> 100 µM
same,TGI,SK-MEL-2 melanoma,> 100 µM
same,GI50,COLO 205 colon,0.0695 µM
same,TGI,COLO 205 colon,> 100 µM
same,GI50,HCT-15 colon,9.01 µM
same,TGI,HCT-15 colon,> 100 µM
same,GI50,UO-31 renal,1.47 µM
same,TGI,UO-31 renal,> 100 µM
same,GI50,M14 melanoma,> 59.2 µM
same,TGI,M14 melanoma,> 100 µM
